Where two headings read alike, the source gives them in different places.
Assays:
hEAG1 (Kv10.1, KCNH1) [1] = target: T1, hEAG1 (Kv10.1, KCNH1) (Homo sapiens, UniProt O95259); assay: patch clamp, peak current inhibition at […] mV, Hill fit; format: cell-based
T1 construct: full length; untagged in pcDNA3.1 transiently in CHO cells (patch clamp); tetramer
T1 sequence (O95259 1-962 isoform O95259-2): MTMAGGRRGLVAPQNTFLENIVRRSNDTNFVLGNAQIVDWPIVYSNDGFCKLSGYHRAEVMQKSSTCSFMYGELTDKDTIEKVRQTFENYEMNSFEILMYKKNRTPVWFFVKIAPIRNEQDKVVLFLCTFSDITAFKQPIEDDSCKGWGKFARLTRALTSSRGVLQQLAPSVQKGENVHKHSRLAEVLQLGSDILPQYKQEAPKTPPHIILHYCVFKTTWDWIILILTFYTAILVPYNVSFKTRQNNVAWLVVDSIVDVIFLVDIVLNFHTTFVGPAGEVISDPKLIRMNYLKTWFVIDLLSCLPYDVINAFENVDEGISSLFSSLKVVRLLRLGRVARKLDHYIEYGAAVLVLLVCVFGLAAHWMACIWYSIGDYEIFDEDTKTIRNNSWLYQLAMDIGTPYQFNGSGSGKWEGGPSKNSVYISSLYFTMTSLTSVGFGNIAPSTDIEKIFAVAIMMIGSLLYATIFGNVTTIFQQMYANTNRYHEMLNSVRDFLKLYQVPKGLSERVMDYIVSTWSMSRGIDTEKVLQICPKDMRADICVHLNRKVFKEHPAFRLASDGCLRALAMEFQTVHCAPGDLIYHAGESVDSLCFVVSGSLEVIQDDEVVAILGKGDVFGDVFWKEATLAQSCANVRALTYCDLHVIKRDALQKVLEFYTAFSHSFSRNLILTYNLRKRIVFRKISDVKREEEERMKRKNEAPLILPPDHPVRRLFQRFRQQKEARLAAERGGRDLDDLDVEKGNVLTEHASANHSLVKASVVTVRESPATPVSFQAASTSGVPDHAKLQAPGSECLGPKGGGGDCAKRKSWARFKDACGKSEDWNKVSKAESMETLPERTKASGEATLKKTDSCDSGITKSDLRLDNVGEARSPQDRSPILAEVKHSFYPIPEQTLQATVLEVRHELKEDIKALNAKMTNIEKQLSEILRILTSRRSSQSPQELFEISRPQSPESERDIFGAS

hEAG1 (Kv10.1, KCNH1) [2] = target: T1, hEAG1 (Kv10.1, KCNH1); assay: bio-layer interferometry, biotinylated FLAG-tagged channel on streptavidin sensor, Hill fit; format: binding; settings: 200-s cumulative application epochs; PBS, 0.02% Tween-20, 0.1% BSA, pH 7.4; room temperature; brain-derived lipid of mixed acyl chains

IC50 (hEAG1 (Kv10.1, KCNH1) [1])	Kd (hEAG1 (Kv10.1, KCNH1) [2])	IC50 (hEAG1 (Kv10.1, KCNH1) [1]; 200-s application to the intracellular side, peak current at 40 mV, room temperature, brain-derived lipid of mixed acyl chains)	Compound
18600 ± 600 nM	–	–	CCCCCCCC(=O)OC[C@H](COP(=O)(O)O[C@@H]1[C@H](O)[C@H](O)[C@@H](OP(=O)(O)O)[C@H](OP(=O)(O)O)[C@H]1O)OC(=O)CCCCCCC [diC8-PIP2]
–	350 ± 40 nM	350 ± 10 nM	PIP2

Source: publication PMC4804213, “Human EAG channels are directly modulated by PIP2 as revealed by electrophysiological and optical interference investigations” (Scientific Reports, 2016)
